Calls of active or inactive are those of the source. The rule behind the calls is not given here.

For assay [1], the system named is N2a. The assay can be described thus: Cytoprotective activity against mouse N2a cells assessed as increase in mitochondrial ATP production at 100 to 1000 nM measured by Seahorse extracellular flux analyzer based assay. In kind it is functional, cell-based. The settings on record: dose 100-1000 nM.
For a further assay, the species on record is Homo sapiens. The assay can be described thus: Disruption of HSP90 alpha (unknown origin) and PPID (unknown origin) at 50 uM measured after 1 hr by AlphaLISA assay relative to control.
The test system of assay [2] is N2a. The assay can be described thus: Cytoprotective activity against mouse N2a cells assessed as decrease in mitochondrial ATP production at 100 to 1000 nM measured by Seahorse extracellular flux analyzer based assay. In kind it is functional, cell-based. The settings on record: dose 100-1000 nM.

`CC(=O)NCCc1ccc(O[C@@H]2CCC[C@H](Sc3ccccc3)C2)cc1-c1cccc(F)c1`: the result in the assay with N2a [1] was Active. Also, in the assay filed under Homo sapiens, the Activity is > 50%. For the molecule `CC(=O)NCCc1ccc(O[C@H]2CC[C@@H](Oc3ccc(Cl)cc3)CC2)cc1-c1cccc(F)c1`, the outcome in the assay on N2a [2] was Active. Besides, in the assay filed under Homo sapiens, the Activity was > 50%.

As for `CC(=O)NCCc1ccc(O[C@H]2CC[C@@H](Oc3ccccc3)CC2)cc1-c1cccc(F)c1`, in the assay on N2a [1], the result was Active. Moreover, in the assay listed under Homo sapiens, the Activity was > 50%. The matching figures for `CC(=O)NCCc1ccc(O[C@@H]2CCC[C@@H](N(C)c3ccccc3)C2)cc1-c1cccc(F)c1`: “Active” and < 50%. The matching figures for `CC(=O)NCCc1ccc(O[C@H]2CCC[C@@H](N(C)c3ccccc3)C2)cc1-c1cccc(F)c1`: “Active” and < 50%. The matching figures for `CC(=O)NCCc1ccc(O[C@H]2CC[C@H](Oc3ccc(Cl)cc3Cl)CC2)cc1-c1cccc(F)c1`: “Active” and > 50%. With `CC(=O)NCCc1ccc(O[C@H]2CC[C@@H](S(=O)(=O)Cc3ccccc3)CC2)cc1-c1cccc(F)c1`, the result with N2a [1] was Active. Also, in the assay listed under Homo sapiens, the Activity was > 50%. For the molecule `O[C@H]1CC[C@H](Oc2cccc(Cl)c2)CC1`, the result in the assay with N2a [1] was Active.

Turning to `CC(=O)NCCc1ccc(O[C@H]2CC[C@H](Oc3cccc(Cl)c3)CC2)cc1-c1cccc(F)c1`, in the assay with N2a [2], the outcome was Active. Further, the Activity in the assay listed under Homo sapiens was > 50%. With `CC(=O)NCCc1ccc(O[C@H]2CC[C@H](Sc3ccccc3)CC2)cc1-c1cccc(F)c1`, the outcome in the assay with N2a [1] was Active. Also, in the assay listed under Homo sapiens, the Activity is > 50%. In the same order, the values of `CC(=O)NCCc1ccc(O[C@H]2CCC[C@@H](CCc3ccccc3)C2)cc1-c1cccc(F)c1` are “Active” and > 50%. In the same order, the values of `CC(=O)NCCc1ccc(O[C@H]2CC[C@@H](S(=O)(=O)c3ccccc3)CC2)cc1-c1cccc(F)c1` are “Active” and > 50%.

With `CC(=O)NCCc1ccc(O[C@H]2CC[C@H](C(F)(F)Cc3ccccc3)CC2)cc1-c1cccc(F)c1`, the outcome with N2a [1] was Active. Also, the Activity in the assay listed under Homo sapiens was > 50%. Turning to `CC(=O)NCCc1ccc(O[C@H]2CC[C@@H](N(C)c3ccccc3)CC2)cc1-c1cccc(F)c1`, in the assay with N2a [1], the result was Active. For the same molecule, the Activity in the assay listed under Homo sapiens was < 50%. For `O[C@H]1CC[C@@H](Oc2cccc(Cl)c2)CC1`, the outcome in the assay on N2a [1] was Active. The same measure, in the same setting: the entry for `CC(=O)NCCc1ccc(OC2CCC(Oc3ccccc3)[C@H](O)[C@@H]2O)cc1-c1cccc(F)c1` (stereo partly drawn) is “Active”.

Turning to `CC(=O)NCCc1ccc(O[C@H]2CC[C@@H](Oc3ccc(Cl)cc3Cl)CC2)cc1-c1cccc(F)c1`, the result with N2a [1] was Active. Further, the Activity in the assay filed under Homo sapiens is > 50%. For `CC(=O)NCCc1ccc(O[C@H]2CC[C@@H](Oc3cccc(Cl)c3)CC2)cc1-c1cccc(F)c1`, the outcome in the assay with N2a [2] was Active. The Activity in the assay listed under Homo sapiens is > 50%. As for `CC(=O)NCCc1ccc(O[C@H]2CCC[C@@H](OCc3ccccc3)C2)cc1-c1cccc(F)c1`, in the assay on N2a [1], the result was Active. The Activity in the assay listed under Homo sapiens is > 50%. As to `CC(=O)NCCc1ccc(O[C@H]2CC[C@@H](OCc3ccccc3)CC2)cc1-c1cccc(F)c1`, the outcome with N2a [1] was Active. As for `CC(=O)NCCc1ccc(O[C@@H]2CCC[C@@H](CCc3ccccc3)C2)cc1-c1cccc(F)c1`, the result in the assay on N2a [1] was Active. In addition, in the assay listed under Homo sapiens, the Activity is > 50%. With `CC(=O)NCCc1ccc(O[C@H]2CC[C@@H](SCc3ccccc3)CC2)cc1-c1cccc(F)c1`, in the assay with N2a [1], the result was Active.

In the case of `CC(=O)NCCc1ccc(O[C@H]2CC[C@H](Nc3ccccc3)CC2)cc1-c1cccc(F)c1`, the result in the assay on N2a [1] was Active. Besides, the Activity in the assay listed under Homo sapiens was < 50%.

Consider `CC(=O)NCCc1ccc(O[C@@H]2CCC[C@@H](Oc3ccccc3)C2)cc1-c1cccc(F)c1`, for which the outcome with N2a [1] was Active. Also, the Activity in the assay filed under Homo sapiens was > 50%. The matching figures for `CC(=O)NCCc1ccc(O[C@H]2CC[C@H](N(C)c3ccccc3)CC2)cc1-c1cccc(F)c1`: “Active” and < 50%. Turning to `CC(=O)NCCc1ccc(O[C@H]2CC[C@H](Oc3ccc(Cl)cc3)CC2)cc1-c1cccc(F)c1`, the outcome in the assay on N2a [2] was Active. The Activity in the assay listed under Homo sapiens is > 50%. As to `O[C@H]1CC[C@@H](Oc2ccc(Cl)cc2Cl)CC1`, the outcome with N2a [1] was Active. Consider `CC(=O)NCCc1ccc(O[C@@H]2CCC[C@@H](OCc3ccccc3)C2)cc1-c1cccc(F)c1`, for which, in the assay on N2a [1], the outcome was Active. For the same molecule, the Activity in the assay listed under Homo sapiens was < 50%. The matching figures for `CC(=O)NCCc1ccc(O[C@H]2CC[C@@H](C(F)(F)Cc3ccccc3)CC2)cc1-c1cccc(F)c1`: “Active” and > 50%. In the same order, the values of `CC(=O)NCCc1ccc(O[C@H]2CC[C@H](S(=O)(=O)Cc3ccccc3)CC2)cc1-c1cccc(F)c1` are “Active” and > 50%.

As for `CC(=O)NCCc1ccc(O[C@H]2CC[C@H](S(=O)(=O)c3ccccc3)CC2)cc1-c1cccc(F)c1`, in the assay with N2a [1], the outcome was Active. In addition, the Activity in the assay listed under Homo sapiens is > 50%. With `O[C@H]1CC[C@H](Oc2ccc(Cl)cc2)CC1`, the result in the assay on N2a [1] was Active. In the case of `CC(=O)NCCc1ccc(O[C@H]2CC[C@@H](Cc3ccccc3)CC2)cc1-c1cccc(F)c1`, the result with N2a [1] was Active. In the assay listed under Homo sapiens, the Activity is > 50%. In the same order, the values of `CC(=O)NCCc1ccc(O[C@H]2CC[C@@H](Nc3ccccc3)CC2)cc1-c1cccc(F)c1` are “Active” and > 80%.

As for `CC(=O)NCCc1ccc(O[C@H]2CCC[C@@H](Sc3ccccc3)C2)cc1-c1cccc(F)c1`, the result in the assay with N2a [1] was Active. For the same molecule, the Activity in the assay filed under Homo sapiens was > 50%.

As for `CC(=O)NCCc1ccc(O[C@H]2CC[C@H](SCc3ccccc3)CC2)cc1-c1cccc(F)c1`, in the assay on N2a [1], the outcome was Active. Also, in the assay filed under Homo sapiens, the Activity was < 50%. On to `O[C@H]1CC[C@H](Oc2ccc(Cl)cc2Cl)CC1`, for which the result with N2a [1] was Active. Take `CC(=O)NCCc1ccc(O[C@H]2CCC[C@@H](Oc3ccccc3)C2)cc1-c1cccc(F)c1`: the outcome in the assay on N2a [1] was Active. In addition, the Activity in the assay filed under Homo sapiens is > 50%. In the same order, the values of `CC(=O)NCCc1ccc(O[C@H]2CC[C@H](Oc3ccccc3Cl)CC2)cc1-c1cccc(F)c1` are “Active” and > 50%. The matching figures for `CC(=O)NCCc1ccc(O[C@H]2CC[C@H](Oc3ccccc3)CC2)cc1-c1cccc(F)c1`: “Active” and > 50%. The matching figures for `CC(=O)NCCc1ccc(O[C@@H]2CCC[C@@H](Nc3ccccc3)C2)cc1-c1cccc(F)c1`: “Active” and < 50%. `CC(=O)NCCc1ccc(O[C@H]2CC[C@H](CCc3ccccc3)CC2)cc1-c1cccc(F)c1`: in the assay with N2a [1], the result was Active. The Activity in the assay listed under Homo sapiens is > 50%. The matching figures for `CC(=O)NCCc1ccc(O[C@@H]2CCC[C@@H](SCc3ccccc3)C2)cc1-c1cccc(F)c1`: “Active” and > 50%.

As to `CC(=O)NCCc1ccc(O[C@H]2CCC[C@@H](SCc3ccccc3)C2)cc1-c1cccc(F)c1`, in the assay with N2a [1], the result was Active. Regarding `CC(=O)NCCc1ccc(O[C@H]2CC[C@H](Cc3ccccc3)CC2)cc1-c1cccc(F)c1`, in the assay with N2a [1], the result was Active. Further, the Activity in the assay listed under Homo sapiens is > 50%. The matching figures for `CC(=O)NCCc1ccc(O[C@H]2CCC[C@@H](Cc3ccccc3)C2)cc1-c1cccc(F)c1`: “Active” and > 50%. In the same order, the values of `CC(=O)NCCc1ccc(O[C@H]2CC[C@@H](Sc3ccccc3)CC2)cc1-c1cccc(F)c1` are “Active” and > 50%. The matching figures for `CC(=O)NCCc1ccc(O[C@H]2CCC[C@@H](Nc3ccccc3)C2)cc1-c1cccc(F)c1`: “Active” and > 80%. Regarding `O[C@H]1CC[C@@H](Oc2ccc(Cl)cc2)CC1`, the outcome in the assay on N2a [1] was Active. With `CC(=O)NCCc1ccc(O[C@@H]2CCC[C@@H](Cc3ccccc3)C2)cc1-c1cccc(F)c1`, in the assay on N2a [1], the outcome was Active. In the assay filed under Homo sapiens, the Activity is > 50%.

For the molecule `CC(=O)NCCc1ccc(O[C@H]2CC[C@@H](Oc3ccccc3Cl)CC2)cc1-c1cccc(F)c1`, the outcome in the assay with N2a [1] was Active. Also, the Activity in the assay listed under Homo sapiens was > 50%. `CO[C@@H]1[C@@H](OC(N)=O)[C@@H](O)[C@H](Oc2ccc3c(O)c(NC(=O)c4ccc(O)c(CC=C(C)C)c4)c(=O)oc3c2C)OC1(C)C`: in the assay with N2a [1], the result was Active.

(Values after ChEMBL document CHEMBL5113509, “Synthesis and evaluation of 3'- and 4'-substituted cyclohexyl noviomimetics that modulate mitochondrial respiration” (Bioorg Med Chem, 2022).)
